According to US20100168033A1, “UNACYLATED GHRELIN AS THERAPEUTIC AGENT IN THE TREATMENT OF METABOLIC DISORDERS” (ALIZE PHARMA SAS, priority 2007, published 2010):
“Also recorded” adds a separate entry of the source. Where two headings read alike, the source gives them in different places. No end group written: not given here.

Legend:
[1] = system: human pancreatic islets; test: Insulin secretion in human pancreatic islets; format: cell-based; conditions: peptide 100 nM; glucose absent or 2 to 25 mM
Procedure: The effects of UAG (1-14) and UAG (1-18), both used at 100 nM, were investigated on insulin secretion in human islets. […] UAG (1-28) and Exendin-4 were used as positive controls (FIGS. 8C and 8D).

[2] = system: HIT-T15 β-cells; test: Insulin secretion in HIT-T15 β-cells; format: cell-based, hamster; conditions: data not shown
Procedure: Insulin secretion—HIT-T15 cells were plated at density of 5×10^5 cells into 100-mm dishes and serum starved for 24 h before incubation for 1 h at 37° C. in HEPES-buffered Krebs-Ringer bicarbonate buffer (KRBH), containing 0.5% BSA with 1.25 mM glucose. The medium was changed and the cells were incubated again for 1 h in KRBH/0.5% BSA containing 1.25, 7.5 or 15 mM glucose. Following acid ethanol extraction of the hormone, secreted insulin was quantitated by a radioimmunoassay kit (Linco Research, Labodia, Yens, Switzerland) which recognizes human insulin and cross reacts with rat insulin.

[3] = system: INS-1E β-cells; test: MTT cell survival assay in INS-1E β-cells; format: cell-based, rat; conditions: peptides 0.1 nM to 100 nM
Procedure: The peptides were tested at increasing concentrations, ranging from 0.1 nM to 100 nM.
(§1) Cell culture—Hamster HIT-T15 insulin-secreting β-cells were obtained and cultured as described (Refs. 14, 4). INS-1E rat β-cells were kindly provided by Prof. Claes B. Wollheim (University Medical Center, Geneva, Switzerland) and cultured as described (Refs. 14, 4). Cell culture reagents were from Invitrogen (Milano, Italy). Cytokines were from Biosource (Invitrogen, Italy).
(§2) Cell survival assay—Cell survival was assessed by 3-[4,5-dimethylthiazol-2-yl]-2,5 diphenyltetrazolium bromide (MTT) as described previously (Ref. 4). Cells were seeded on 96-well plates at a density of 5×10^3 cells/well. After treatments, cells were incubated with 1 mg/ml MTT for ≈1 h. The medium was aspirated, and the formazan product solubilized with 100 μl DMSO. Viability was assessed by spectrophotometry at 570 nm absorbance using a 96-well plate reader.

[4] = system: HIT-T15 β-cells; format: cell-based
Procedure: MTT experiments were also performed in hamster HIT-T15 β-cells, to test the survival effect of UAG (1-28) or its fragments UAG (1-14), UAG (1-18), UAG (1-5) and UAG (17-28) in serum deprived medium, either alone or with IFN-γ/TNF-α/IL-1β. As for the experiments performed on INS-1E β-cells, the peptides were tested at increasing concentrations, ranging from 0.1 nM to 100 nM.
The survival effect of UAG (6-13), UAG (8-13), UAG (8-12), UAG (8-11), UAG (9-12) and UAG (9-11) was assessed in cytokine-treated HIT-T15 β-cells.
The protective effects of peptides UAG (8-13) and UAG (8-12) were found similar to those of UAG (1-14) and UAG (1-18) A peptide made of the inverse sequence of UAG (1-14) and named UAG (14-1), was used as negative control for these experiments (FIG. 5A). […] These effects were however lower than those of UAG (6-13) (FIG. 5B).
UAG fragments with alanine (Ala) substitutions at different amino acid positions (6 to 13) were tested with regards to their survival effects in HIT-T15 hamster β-cells. The cells were cultured in serum deprived medium, either alone or with IFN-γ/TNF-α/IL-1β. The peptides were tested at the concentrations of 1 nM to 100 nM. […] Under treatment with cytokines, where cell survival was reduced by ≈18% with respect to serum starved conditions, all Ala substitutions, except those at positions 10 and 11, completely reversed cell death and brought the survival rate to levels that were even higher than those under serum-free conditions, at both 1 nM and 100 nM concentrations. These effects, were similar to those elicited by the original peptide UAG (6-13) (FIG. 11B).
Particularly, the best effect was exerted by Gly 6-UAG (6-13), whereas the lowest was seen using AcSer 6-UAG (6-13), AcSer 6-(D)Pro 7-UAG (6-13) (FIG. 12B).
as §1, §2

[5] = system: human pancreatic islets; test: MTT cell survival assay in human pancreatic islets; format: cell-based; conditions: 1 nM to 100 nM
Procedure: The survival effect of UAG (1-14), UAG (1-18), UAG (1-5) and UAG (17-28), with respect to that of full length UAG (1-28), was assessed in human pancreatic islets by MTT. The peptides were tested in islet cells cultured in serum deprived medium, either alone or with IFN-γ/TNF-α/IL-1β (5 ng/ml each).
Human islet isolation—Human islets were obtained from pancreases of multiorgan donors as described (Ref. 4). Islet preparations with purity >70%, not suitable for transplantation, were provided by European Consortium for Islet Transplantation (ECIT) “Islets for Research Distribution Program,” Transplant Unit, Scientific Institute San Raffaele, Vita-Salute University, Milan. Islets (10,000) were cultured in CMRL (Invitrogen) with 10% FBS.
as §2

[6] = system: UAG receptor on HIT-T15 pancreatic β-cells; test: [125I-Tyr4]-UAG competition binding, HIT-T15 membranes; set-up: species or system hamster; conditions: HIT-T15 cells
Procedure: (§3) The ability of the fragment UAG (6-13) to compete in a concentration-dependent manner with [^125I-Tyr^4]-UAG for HIT-T15 (FIG. 10A) and INS-1E (FIG. 10B) binding sites was assayed. As shown in FIGS. 10A and 10B, unlabelled UAG (1-28) and UAG (6-13) competed with a similar efficacy and in a concentration-dependent fashion with [^125I-Tyr^4]-UAG for such binding sites in both cell lines.
(§4) Binding assay—Membranes from hamster HIT-T15 and rat INS-1E to pancreatic β-cells were prepared and assayed for the presence of [^125I-Tyr^4]-UAG binding. The ability of UAG fragments to compete with the radioligand for such binding sites has been evaluated as previously described (Ref. 4). Data are presented as mean±S.E.M. of three independent experiments.

[7] = system: UAG receptor on INS-1E pancreatic β-cells; test: [125I-Tyr4]-UAG competition binding, INS-1E membranes; set-up: species or system rat; conditions: INS-1E cells
Procedure: as §3, §4

[8] = serum deprived medium with IFN-γ/TNF-α/IL-1β

Substance | insulin secretion [1] | glucose-induced insulin secretion [2] | cell survival (MTT) [3, 8] | cell survival (MTT) ([3]; serum-free medium) | cell survival (MTT) ([4]; serum deprived medium alone) | cell survival (MTT) [4, 8] | cell survival (MTT) ([5]; serum deprived medium alone) | cell survival (MTT) ([5]; serum deprived medium with IFN-γ/TNF-α/IL-1β (5 ng/ml each)) | binding to the UAG receptor [6] | binding to the UAG receptor [7]
exendin-4: positive control for insulin secretion, from Phoenix Pharmaceuticals [reference compound] | significantly increased insulin secretion both in the absence and presence of glucose | significantly increased glucose-induced insulin secretion |  |  |  |  |  |  |  | 
GSSFLSPEHQRVQQ [UAG (1-14)] | significantly increased insulin secretion both in the absence and presence of glucose | significantly increased glucose-induced insulin secretion | more potent than full length UAG (1-28); also recorded: even stronger than native UAG | significant survival effect, comparable to that of UAG (1-28) | significantly increased cell viability | significantly increased cell viability | significantly increased cell survival in serum deprived medium at 10 nM and 100 nM | prevented cell death at 100 nM | recognized and bound to the UAG receptor | recognized and bound to the UAG receptor
